The values that follow come from US9844546B2, “Antibody against human HIF hydroxylase” (OXFORD UNIVERSITY INNOVATION LIMITED, priority 2001, dated 2017).

Data set [1] has as its system rat SM-20 and human EGLN1 (PHD2), EGLN2 (PHD1), EGLN3 (PHD3). Kind of data set: Recombinant enzymes (reticulocyte IVTT) promoting pVHL interaction with HIF-1α residues 549-582. The data set is classed as biochemical. The conditions noted are these: all enzymes.
Experimental: To test the role of these gene products in regulating the interaction between human HIFα sub-units and the VHL E3 ligase complex, we first produced the proteins by reticulocyte IVTT. […] After incubation with relevant enzyme, HIF-α substrates were mixed with extracts from 786-0/VHL cells that stably express HA tagged human pVHL, and tested for interaction by anti-HA immunoprecipitation.
Data set [2] relates to EGL-9. Kind of data set: Recombinant EGL-9 modification of HIF-1, HA.VHL-1 capture. The data set is classed as biochemical, C. elegans. As for the experimental part: Preincubation of C. elegans HIF-1 with worm extract or recombinant EGL-9 was for 30 min at 25° C. Preincubation of mammalian HIF-α polypeptides with cell extract or recombinant enzymes was at 37° C. for 10-30 min unless otherwise stated. For assays of recombinant enzymes, 2-oxoglutarate (2 mM), iron (100 μM), and ascorbate (2 mM) were added to the reaction buffer unless otherwise indicated. Reactions performed in hypoxia were in the stated atmospheric oxygen concentration (balance nitrogen) obtained using a controlled environment Invivo2 400 hypoxia work-station (Ruskinn Technologies) and buffers pre-equilibrated with the appropriate atmosphere. Reactions (50 μl) were performed in open Eppendorf tubes with mixing and stopped by the addition of 20 volumes desferrioxamine (100 μM}.
To test whether EGL-9 could act directly on HIF-1, further preparations were made by baculoviral expression in insect cells and by expression as maltose binding protein ([…]) fusion proteins in E. coli. Since full length MBP/EGL-9 protein was insoluble when expressed in E. coli we prepared an N-terminal truncation containing residues 359-723 (MBP/ΔN.EGL-9) that preserved the predicted catalytic domain and had HIF.1 modifying activity when expressed as an IVTT. […]

The subject of data set [3] is EGLN-2 and EGLN-3. Nature of the data set: Modification and pVHL binding assay with reticulocyte lysate programmed with EGLN-2 or EGLN-3. The data set is classed as biochemical, human. The settings on record: desferrioxamine 200 μM, cobaltous chloride 200 μM. The source says:
Protein containing HIF-1 sequence (amino acids 549-582) was generated in a reticulocyte in vitro transcription translation reaction in the presence of 100 micromolar desferrioxamine, retrieved and then exposed to […] translates containing the putative enzymes as described above. These proteins contain the critical proline (564) which can be modified by hydroxylation and which enables recognition by von Hippel Lindau tumour suppressor protein (pVHL).
The modification of the HIF-1 sequence was assayed by the binding of the HIF-1 to radiolabelled pVHL, generated by in vitro transcription and translation of a pcDNA3 vector containing the human wild type pVHL open reading frame in a rabbit reticulocyte lysate in the presence of ^35S-methionine.
Modification and pVHL binding assays were performed as described above. Rabbit reticulocyte lysate was programmed with pcDNA3 based plasmids containing no insert, an insert encoding the full open reading frame of the human homologue of C. elegans Egl-9 known as EGLN-2, or an insert encoding the full open reading frame of the human homologue known as EGLN-3. Modification was performed in the absence of additives, in the presence of oxalylglycine, oxalylglycine plus 2-oxoglutarate, 200 μM desferrioxamine or 200 μM cobaltous chloride.

The subject of data set [4] is HIF-α/pVHL interaction. Nature of the data set: Interaction of HIF-1α and pVHL.HA reticulocyte IVTTs, anti-HA co-immunoprecipitation. The data set is classed as biochemical, human. The settings on record: 100 μM added to the HIF-1α IVTT. As for the experimental part: ^35S-Methionine labelled […] subunits and pVHL.HA were produced separately by IVTT (in vitro transcription and translation) in reticulocyte lysates. IVTTs were performed under different conditions, mixed, and assayed for interaction by anti-HA co-immunoprecipitation. These in vitro assays allowed analysis of the HIFα/pVHL interaction using the recombinant proteins.
Labelled HIF-1α and pVHL.HA were generated separately in reticulocyte lysates (IVTT), in the presence or absence of Co (II), desferrioxamine, or Fe(II). Lysates were mixed in various combinations, and interactions assayed by anti-HA immunoprecipitation.
• 1. G. L. Semenza, Genes Dev 14, 1983-91. (2000). • 2. N. V. Iyer, et al., Genes Dev. 12, 149-162 (1997). • 3. E. Maltepe, J. V. Schmidt, D. Baunoch, C. A. Bradfield, M. C. Simon, Nature 386, 403-407 (1997). • 4. G. L. Wang, B.-H. Jiang, E. A. Rue, G. L. Semenza, Proc. Natl. Acad. Sci. USA 92, 5510-5514 (1995). • 5. S. Salceda, J. Caro, J. Biol. Chem. 272, 22642-22647 (1997). • 6. L. E. Huang, J. Gu, M. Schau, H. F. Bunn, Proc. Natl. Acad. Sci. USA 95, 7987-7992 (1998). • 7. M. S. Wiesener, et al., Blood 92, 2260-2268 (1998). • 8. P. H. Maxwell, et al., Nature 399, 271-275 (1999). • 9. K. Iwai, et al., Proc. Natl. Acad. Sci. USA 96, 12436-12441 (1999). • 10. J. Lisztwan, G. Imbert, C. Wirbelauer, M. Gstaiger, W. Krek, Genes Dev 13, 1822-33 (1999). • 11. M. E. Cockman, et al., J Biol Chem (2000). • 12. M. Ohh, et al., Nat Cell Biol 2, 423-7. (2000). • 13. T. Kamura, et al., Proc Natl Acad Sci USA 97, 10430-5. (2000). • 14. K. Tanimoto, Y. Makino, T. Pereira, L. Poellinger, Embo J 19, 4298-309. (2000). • 15. M. A. Goldberg, S. P. Dunning, H. F. Bunn, Science 242, 1412-1415 (1988). • 16. G. L. Wang, G. L. Semenza, Blood 82, 3610-3615 (1993). • 17. G. L. Semenza, Cell 98, 281-284 (1999). • 18. Hypoxia (<0.1% oxygen) was obtained in a workstation with O2, CO2 and temperature control (Ruskinn Technologies, Leeds, UK). For hypoxic harvest, buffers were preincubated in the chamber overnight. […]

In data set [5] the test system is intact cells. Nature of the data set: Entry into intact cells. The data set is classed as cell-based. The source says: In this Example it is shown that HIF-1α protein and the endogenous HIF target gene encoding carbonic anhydrase 9 (CA-9) are induced by exposure of cells to the PHD inhibitor, dimethyl oxalylglycine. […] The esterified form, dimethyloxalylglycine, has therefore been used to deliver the compound to tissue culture cells.
Application of an esterified form, dimethyloxalylglycine, to tissue culture cells results in stabilisation of HIF alpha chains (Example 1) and activation of transcription of endogenous HIF target genes (Example 5).

The subject of data set [6] is collagen prolyl-hydroxylase (CPH). The settings on record: cited from earlier work.
Data set [7] relates to HIF-α prolyl-hydroxylase (HIF-PH) of cell extract. Nature of the data set: Modifying activity (HIF-PH) of cell extract on HIF substrate (Gal/HIF-1α549-582/VP16 or 19:WT), pVHL capture assay. The data set is classed as biochemical, mammalian. Put shortly: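 Immunopurified HIF-1α substrate (19:WT polypeptide or Gal/HIF-1α549-582/VP16) on beads was incubated with cell extract under test conditions, washed, and tested for capture of 35S-labelled IVTT pVHL, visualised by fluorography. Hydroxylation activity was inferred from pVHL capture.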

In data set [8] the test system is HIF hydroxylase (HPH activity). Nature of the data set: HIF hydroxylase (HPH) inhibition, statements of the description. The data set is classed as biochemical.
Data set [9] deals with HeLa cells. Nature of the data set: Hypoxic induction of total HIF-PH activity in HeLa cell lysates, pVHL capture assay. Type of data set: cell-based, human. The conditions noted are these: hypoxia 16 hours.

Structures are written as SMILES. Where two headings read alike, the source gives them in different places. *1 amine or outer side, *2 acyl side, *3 side chain or, on linkers, in order; H or OH if unused. Where a SMILES comes first, the peptide text is derived from it. Bridges are numbered along the chain shown (N, C = ends). Roman numbers before positions name the chains, in order. [ ]: non-standard residue; d: D form. Actinocin(9to1) = Cc1c2oc3c(C)ccc(C(=O)[*:1])c3nc-2c(C(=O)[*:2])c(N)c1=O; NMeV = CN[C@H](C(=O)O)C(C)C; Sar = CNCC(=O)O

As to `[Cl-].[Cl-].[Co+2]` [Co(II), cobaltous chloride], the “inhibition of enzyme activity promoting pVHL interaction with HIF-1α 549-582” value in data set [1] was “strongly inhibited”. For the same compound, in data set [2], the “effect on recombinant EGL-9 activity” value is recorded as “direct inhibition”. In addition, the “Enzyme activity (modification of HIF-1 to VHL binding form)” value in data set [3] was “diminished”. Besides, in data set [4], the “capture of HIF-1α by pVHL.HA” value is listed as “greatly diminished capture”.
As to `O=C(O)CNC(=O)C(=O)O` [N-oxalylglycine], the “inhibition of enzyme activity promoting pVHL interaction with HIF-1α 549-582” value in data set [1] is given as “strongly inhibited”. Also, the “ability to enter intact cells” value in [5] was “incapable of entering intact cells”. In addition, the “inhibition of CPH” value in data set [6] is listed as “inhibitor”. Also, the “Inhibition of pVHL capture” value in [7] (0-2000 μM inhibitor, RCC4 cell extract, 5 or 100 μM FeCl2) is given as “increased with the concentration of inhibitor”. The “inhibition of modifying activity of cell extract on 19:WT (pVHL capture)” value in data set [7] (N-oxalylglycine 0.2-1 mM, overcome by 5 mM 2-oxoglutarate) was “completely inhibit”. For the same compound, the “inhibition of HIF hydroxylase / HPH” value in data set [8] is recorded as “act as inhibitors”; in data set [8] (listed as N-oxaloglycine) it was “inhibitor”. Also, in [3], the “Enzyme activity (modification of HIF-1 to VHL binding form)” value is “diminished”.
For `Cc1c2oc3c(C)ccc(C(=O)N[C@@H]4C(=O)N[C@H](C(C)C)C(=O)N5CCC[C@H]5C(=O)N(C)CC(=O)N(C)[C@@H](C(C)C)C(=O)O[C@@H]4C)c3nc-2c(C(=O)N[C@@H]2C(=O)N[C@H](C(C)C)C(=O)N3CCC[C@H]3C(=O)N(C)CC(=O)N(C)[C@@H](C(C)C)C(=O)O[C@@H]2C)c(N)c1=O` [actinomycin D] (I: T[dV]P[Sar][NMeV] / II: T[dV]P[Sar][NMeV]; ester I:1-I:C, II:1-II:C; linker I:N-II:N via Actinocin(9to1)), the “effect on induction of total HIF-PH activity by hypoxia” value in [9] was “blocked”.
